In patent US8969247B2, “Method for controlling aquatic weeds” (BASF SE, priority 2005, dated 2015):

Key:
Type in all cases: in vivo
Hydrilla verticillata [1] = experiment: Experiment 3: greenhouse static exposure of hydrilla to mesotrione; details: 500 ppb
Procedure: (§1) Greenhouse and shade house tests were initiated to evaluate the effects of HPPD-inhibitors, exemplary topramezone and mesotrione, for the control of aquatic weeds, exemplary for the control of Hydrilla verticillata.
(§2) To begin the experiment, containers were filled and maintained with a volume of 4000 ml of distilled water at room temperature (24° C.). To each container, an established hydrilla plant (potted in sand mixture) was transferred into the water column. Hydrilla plants were selected for uniformity and length of shoot growth (approx 15 cm). Plants were allowed to equilibrate in the columns for 24 hrs prior to herbicide treatment. Experimental treatments included an untreated control and mesotrione at 500 ppb. Treatments were applied to water columns by the use of a pipette. Amount of herbicide applied was based on the total volume of the containers (4000 ml). After initial herbicide treatment, the water columns were gently stirred to ensure uniform distribution. Treatments were arranged as a complete random design with 3 replications. Each container was considered the experimental unit. Greenhouse conditions were maintained at 24/18° C. (day/night) cycle for the duration of the experiment. Natural day length was supplemented with halogen lighting to provide a 14 hr photoperiod. Water level in the containers was periodically checked and maintained at the 4000 ml level for the duration of the study. At the end of four weeks, hydrilla shoot length and fresh weights were recorded.

Hydrilla verticillata [2] = experiment: Experiment 2: shade house (outdoor) static exposure of hydrilla to topramezone; details: for Hydrilla Shoot Weight: 8 weeks after treatment, dry weight biomass, control 1.5 g, LSD (0.05) 0.2
Procedure: as §1
Experiment 2 was conducted under shade house (outdoor) conditions. Four 4-liter pots were filled with 15 to 20 cm of sand medium plus amended fertilizer (15 grams Osmocote®^1 19-6-12). Four actively growing Hydrilla verticillata tips (10 to 15 cm in length) were planted 1 to 2 cm deep in medium. The four 4-liter pots were placed in 100-liter containers and covered fully with tap water. Plants were treated 15 days after planting once plant elongation and active growth were observed. There were three 100-liter containers per water treatment (three replications) with four sub-sample 4-liter pots and four Hydrilla verticillata plants per 4-liter pot. Treatments were arranged as a complete random design. ^1 Osmocote®—manufactured by: Scotts-Sierra Horticutural Products Company, Marysville, Ohio 43401 U.S.A
Water treatments of 50 ppb, 75 ppb, 100 ppb, 200 ppb, and 400 ppb of topramezone were installed. Plants were harvested 8 weeks after initial water treatment to determine dry weight biomass reductions compared to the untreated check.

Hydrilla verticillata [3] = experiment: Experiment 1: greenhouse static exposure of hydrilla to topramezone; details: 500 ppb
Procedure: as §1
as §2, with “topramezone” for “mesotrione”

[4] = approximately 14 days after treatment

Row | Compound | Visual observations (Hydrilla verticillata [1]; [4]) | Reduction in shoot biomass (Student's t-Test) (Hydrilla verticillata [1]; end of the study (4 weeks)) | Reduction in shoot length (Student's t-Test) (Hydrilla verticillata [1]; end of the study (4 weeks)) | Hydrilla Fresh Weight (Hydrilla verticillata [1]; static exposure, 4 weeks after treatment, control 4.4 g) [grams] | Hydrilla Shoot Length (Hydrilla verticillata [1]; static exposure, 4 weeks after treatment, control 24 cm) [cm] | Hydrilla Shoot Weight (Hydrilla verticillata [2]; 50 ppb) [grams] | Reduction in shoot biomass vs. the untreated control (Hydrilla verticillata [2]; 50 to 400 ppb, end of the study (8 weeks)) | Hydrilla Shoot Weight (Hydrilla verticillata [2]; 75 ppb) [grams] | Hydrilla Shoot Weight (Hydrilla verticillata [2]; 100 ppb) [grams] | Hydrilla Shoot Weight (Hydrilla verticillata [2]; 200 ppb) [grams] | Hydrilla Shoot Weight (Hydrilla verticillata [2]; 400 ppb) [grams] | Visual observations (Hydrilla verticillata [3]; [4]) | Reduction in shoot length and biomass (Student's t-Test) (Hydrilla verticillata [3]; end of the study (4 weeks)) | Effect on hydrilla tissue vs. the untreated control (Hydrilla verticillata [3]; over the course of the study) | Hydrilla Fresh Weight (Hydrilla verticillata [3]; static exposure, 4 weeks after treatment, control 17 g) [grams] | Hydrilla Shoot Length (Hydrilla verticillata [3]; static exposure, 4 weeks after treatment, control 37 cm) [cm]
1 | CS(=O)(=O)c1ccc(C(=O)C2C(=O)CCCC2=O)c([N+](=O)[O-])c1 [mesotrione] | significant bleaching and reddening in the new grown tips | significant reduction in shoot biomass | did not observe a significant reduction in shoot length | 1.4 | 16 | – | – | – | – | – | – | – | – | – | – | –
2 | Cc1c(C(=O)c2cnn(C)c2O)ccc(S(C)(=O)=O)c1C1=NOCC1 [topramezone] | – | – | – | – | – | 1.3 | significant reductions in shoot biomass | 0.8 | 0.8 | 0.7 | 0.6 | significant bleaching and reddening in the new grown tips | significant reductions in both shoot length and biomass | stunting and dieback of hydrilla tissue | 0.3 | 6
